# The source made the active and inactive calls.
# Assays:
# [1] = system: H9c2; experiment: cells; format: functional, cell-based; conditions: Rattus norvegicus, H9c2, Myocardium;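 note: confirmatory concentration-response retest of ultra-high-throughput screening hits for modulation of myocardial damage; cell death induced by hydrogen peroxide oxidative stress; compound pretreatment for 60 min then peroxide exposure for 2 h; potency is for protecting the cells against peroxide damage rather than for killing them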
# [2] = non-specific 3'UTR reporter inhibition in Clone20-Shn3RL – cell-based, Renilla luciferase, cherry-picked, counter-screen for Shn3 inhibitor project, dose response (AID 624133); format: functional
# [3] = luciferase reporter signal suppression in cells – H4 neuroglioma cells, luminescence, dose response (AID 1990); format: functional, cell-based
# [4] = molecular target: T1, Streptokinase A (Streptococcus pyogenes serotype M1, UniProt P10520); experiment: viability-normalized secreted streptokinase activity reduction – plasminogen activation absorbance, OD405, dose response (AID 1914); format: functional, Streptococcus pyogenes M1 GAS;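 note: secreted streptokinase activity via plasminogen activation per viability signal from cell pellet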
# T1 sequence (P10520 whole entry): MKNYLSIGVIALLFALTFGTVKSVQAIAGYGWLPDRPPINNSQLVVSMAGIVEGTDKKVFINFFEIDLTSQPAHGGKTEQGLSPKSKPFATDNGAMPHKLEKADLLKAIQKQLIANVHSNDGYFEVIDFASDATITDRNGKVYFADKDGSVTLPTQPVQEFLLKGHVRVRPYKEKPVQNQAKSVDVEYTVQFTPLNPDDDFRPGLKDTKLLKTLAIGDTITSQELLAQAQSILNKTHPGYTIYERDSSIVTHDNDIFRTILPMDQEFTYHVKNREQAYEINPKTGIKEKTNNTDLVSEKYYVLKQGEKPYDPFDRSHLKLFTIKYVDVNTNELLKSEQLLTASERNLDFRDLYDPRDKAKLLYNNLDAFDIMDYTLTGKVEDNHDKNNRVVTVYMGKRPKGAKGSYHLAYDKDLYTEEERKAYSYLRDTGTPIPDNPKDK
# [5] = system: INS1; experiment: INS-1E survival protection against cytokine death – cell-based, luminescence, retest, dose response (AID 449756); format: functional; conditions: Rattus norvegicus;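 note: cell death triggered by IL-1 beta plus TNF-alpha plus IFN-gamma mixture; protective hits raise ATP signal compared with cytokine alone wells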
# [6] = system: Streptococcus sp. 'group A'; experiment: Streptococcus pyogenes SK(-)GAS viability under kanamycin – luminescence, BacTiterGlo, confirmation, counter-screen for streptokinase expression inhibitor project, dose response (AID 1900); format: functional, organism-based
# [7] = alpha-synuclein stem-loop luciferase translation blockers – H4 neuroglioma cells, luminescence, confirmation (AID 1988); format: functional, cell-based
# [8] = Trypanosoma cruzi growth suppression in host cells – NIH3T3 host cells, beta-gal luminescence, confirmation (AID 2044); format: functional, cell-based;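 note: intracellular parasites grown in NIH/3T3 mouse fibroblasts as host cells; luminescent beta-galactosidase reporter signal from transgenic T. cruzi replicating inside host cells; inhibitors lower the luminescence signal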
# [9] = system: Streptococcus; experiment: GAS UMAA2166 growth inhibition – luminescence, BacTiterGlo, counter-screen for streptokinase expression inhibitor project, dose response (AID 1915); format: functional, organism-based;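 note: potency for reduction of bacterial viability or growth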
# [10] = reduction of Shn3 3'UTR-driven luciferase in osteoblasts – cell-based, Clone20 osteoblasts, firefly luciferase, cherry-picked, dose response (AID 624132); format: functional;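 note: firefly luciferase luminescence from reporter carrying the Shn3 3'UTR in osteoblasts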
# [11] = Luminescence Cell-Based Dose Response HTS to Identify Inhibitors of 5'UTR Stem-Loop Driven Prion Protein mRNA Translation in H4 Neuroglioblastoma Cells. [Related pubchem assays: 1827 (Project Summary), 1813 (Primary HTS)]; format: functional
# [12] = loss of viability in HepG2 cells – cell-based, CellTiter-Glo, cherry-picked, cytotoxicity control for Shn3 inhibitor project, dose response (AID 624134); format: functional
# [13] = NIH3T3 cell viability loss – ATP luminescence, mouse fibroblasts, counter-screen, dose response (AID 2010); format: functional, cell-based;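 note: cells exposed to compound for about 90 hours before reading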
# [14] = molecular target: FAD-linked sulfhydryl oxidase ALR (Homo sapiens, UniProt P55789); experiment: ALR-catalysed DTT oxidation blockers – biochemical, H2O2 detection, luminescence, cherry-pick, dose response (AID 493248)
# [15] = molecular target: T2, Rac GTPase-activating protein 1 (Homo sapiens, UniProt Q9H0H5); experiment: blockers of MgcRacGAP-driven Rac1 GTP hydrolysis – biochemical, ADP Hunter fluorescence, primary and confirmatory, confirmation (AID 624330); format: functional
# T2 sequence (Q9H0H5 whole entry): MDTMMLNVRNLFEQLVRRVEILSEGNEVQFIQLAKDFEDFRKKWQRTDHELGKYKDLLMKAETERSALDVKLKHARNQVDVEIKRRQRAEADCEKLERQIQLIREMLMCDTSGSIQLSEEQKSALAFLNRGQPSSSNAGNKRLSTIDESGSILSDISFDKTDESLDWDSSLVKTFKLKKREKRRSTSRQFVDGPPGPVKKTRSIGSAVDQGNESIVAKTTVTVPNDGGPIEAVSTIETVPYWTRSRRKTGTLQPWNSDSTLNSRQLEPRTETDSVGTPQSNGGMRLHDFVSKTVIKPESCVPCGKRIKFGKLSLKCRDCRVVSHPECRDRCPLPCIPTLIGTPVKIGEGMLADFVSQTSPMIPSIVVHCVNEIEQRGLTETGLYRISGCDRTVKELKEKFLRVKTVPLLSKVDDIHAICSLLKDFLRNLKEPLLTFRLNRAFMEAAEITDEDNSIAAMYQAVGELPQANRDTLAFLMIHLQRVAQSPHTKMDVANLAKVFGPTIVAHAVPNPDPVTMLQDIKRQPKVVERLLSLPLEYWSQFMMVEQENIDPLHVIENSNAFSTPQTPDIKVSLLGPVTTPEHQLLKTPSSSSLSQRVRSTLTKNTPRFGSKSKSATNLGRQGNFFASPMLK
# [16] = molecular target: Induced myeloid leukemia cell differentiation protein Mcl-1 (Homo sapiens, UniProt Q07820); format: functional
# [17] = molecular target: Cytochrome P450 3A4 (Homo sapiens, UniProt P08684);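 note: CYP3A4 tested as one member of a cytochrome P450 panel screen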
# [18] = molecular target: T3, Cytochrome P450 2C9 (Homo sapiens, UniProt P11712)
# [19] = molecular target: Cytochrome P450 2C19 (Homo sapiens, UniProt P33261); experiment: Cytochrome panel assay with activity outcomes. Panel member name: p450-cyp2c19 Compounds with AC50 equal or less than 10 uM are considered active; format: functional; conditions: read-out: AC50
# [20] = molecular target: T3, Cytochrome P450 2C9; remark: listed apart in the source
# [21] = molecular target: T4, Cytochrome P450 1A2 (Homo sapiens, UniProt P05177);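 note: PubChem cytochrome P450 panel assay, CYP1A2 panel member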
# T4 sequence (P05177 whole entry): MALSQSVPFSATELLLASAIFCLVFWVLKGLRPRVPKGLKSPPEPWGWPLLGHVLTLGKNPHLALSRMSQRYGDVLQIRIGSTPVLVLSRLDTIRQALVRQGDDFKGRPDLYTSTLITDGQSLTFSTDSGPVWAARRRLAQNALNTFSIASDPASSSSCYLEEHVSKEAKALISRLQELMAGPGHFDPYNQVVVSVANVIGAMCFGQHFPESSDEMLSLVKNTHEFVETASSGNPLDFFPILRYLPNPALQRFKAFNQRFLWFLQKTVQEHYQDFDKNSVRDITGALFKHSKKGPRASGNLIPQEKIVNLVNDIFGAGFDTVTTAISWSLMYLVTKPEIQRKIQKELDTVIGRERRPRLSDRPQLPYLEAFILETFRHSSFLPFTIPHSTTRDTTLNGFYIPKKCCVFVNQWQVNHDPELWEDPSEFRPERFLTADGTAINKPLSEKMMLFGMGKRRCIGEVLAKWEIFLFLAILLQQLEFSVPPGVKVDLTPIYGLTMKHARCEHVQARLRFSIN
# [22] = molecular target: Nonstructural protein 1 (Influenza A virus, UniProt Q194T2); format: functional, Influenza A virus (A/California/07/2009(H1N1))
# [23] = blockers of HIV-1 ZM109 envelope-driven cell-cell fusion – HeLa effector, CEM target cells, luciferase, cherry-pick, dose response (AID 652058); format: functional, cell-based;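 note: luciferase signal from HIV-1 Env mediated cell-cell fusion of effector and target cells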
# [24] = HIV-1 AD8 envelope cell-cell fusion blockers – cherry-pick, dose response (AID 652062); format: functional, cell-based;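 note: luciferase signal from cell-cell fusion driven by HIV-1 clade B AD8 Env; potency is for inhibitors of fusion seen as a drop in luminescence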
# Chain of FAD-linked sulfhydryl oxidase ALR (P55789 whole entry): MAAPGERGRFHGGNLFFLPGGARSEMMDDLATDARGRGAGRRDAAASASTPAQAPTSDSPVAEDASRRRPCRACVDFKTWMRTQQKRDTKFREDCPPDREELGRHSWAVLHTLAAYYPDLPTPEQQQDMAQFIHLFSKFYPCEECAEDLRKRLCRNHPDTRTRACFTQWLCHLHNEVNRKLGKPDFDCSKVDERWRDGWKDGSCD
# Chain of Induced myeloid leukemia cell differentiation protein Mcl-1 (Q07820 whole entry): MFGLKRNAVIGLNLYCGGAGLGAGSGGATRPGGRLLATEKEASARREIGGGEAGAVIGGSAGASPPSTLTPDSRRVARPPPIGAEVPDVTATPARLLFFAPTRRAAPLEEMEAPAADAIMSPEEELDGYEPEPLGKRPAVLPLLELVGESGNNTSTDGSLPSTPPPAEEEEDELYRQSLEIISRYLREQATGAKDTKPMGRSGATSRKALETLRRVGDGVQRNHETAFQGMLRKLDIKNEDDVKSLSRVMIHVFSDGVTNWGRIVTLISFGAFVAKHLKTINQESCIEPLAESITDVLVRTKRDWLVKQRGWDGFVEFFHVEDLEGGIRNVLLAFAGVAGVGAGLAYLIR
# T3 sequence (P11712 whole entry): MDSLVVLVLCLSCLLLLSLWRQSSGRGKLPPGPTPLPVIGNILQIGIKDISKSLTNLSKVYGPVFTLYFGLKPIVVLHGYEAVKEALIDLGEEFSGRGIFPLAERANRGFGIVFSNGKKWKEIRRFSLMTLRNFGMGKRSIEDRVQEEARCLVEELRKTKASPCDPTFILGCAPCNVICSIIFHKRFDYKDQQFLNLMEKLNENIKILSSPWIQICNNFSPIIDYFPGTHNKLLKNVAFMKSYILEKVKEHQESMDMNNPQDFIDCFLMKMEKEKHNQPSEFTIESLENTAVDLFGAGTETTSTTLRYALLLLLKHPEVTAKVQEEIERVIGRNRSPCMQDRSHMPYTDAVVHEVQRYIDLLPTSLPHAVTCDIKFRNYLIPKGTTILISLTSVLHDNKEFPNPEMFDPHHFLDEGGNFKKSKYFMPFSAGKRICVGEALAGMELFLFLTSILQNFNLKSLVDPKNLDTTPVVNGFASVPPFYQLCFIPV
# Chain of Cytochrome P450 3A4 (P08684 whole entry): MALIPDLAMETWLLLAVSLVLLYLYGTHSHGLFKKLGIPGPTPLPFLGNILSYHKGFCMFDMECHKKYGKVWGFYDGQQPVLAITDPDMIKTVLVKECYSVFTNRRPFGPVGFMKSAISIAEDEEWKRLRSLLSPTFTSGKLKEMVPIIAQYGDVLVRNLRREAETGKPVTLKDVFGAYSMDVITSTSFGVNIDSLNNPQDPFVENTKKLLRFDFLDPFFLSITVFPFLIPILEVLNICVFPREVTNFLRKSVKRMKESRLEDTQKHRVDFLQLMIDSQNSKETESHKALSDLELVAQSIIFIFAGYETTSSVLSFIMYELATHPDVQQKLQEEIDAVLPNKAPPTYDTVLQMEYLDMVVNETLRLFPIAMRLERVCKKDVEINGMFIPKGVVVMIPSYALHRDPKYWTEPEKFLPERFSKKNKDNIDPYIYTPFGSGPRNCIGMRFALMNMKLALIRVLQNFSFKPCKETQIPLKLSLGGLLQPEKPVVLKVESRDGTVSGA
# Chain of Cytochrome P450 2C19 (P33261 whole entry): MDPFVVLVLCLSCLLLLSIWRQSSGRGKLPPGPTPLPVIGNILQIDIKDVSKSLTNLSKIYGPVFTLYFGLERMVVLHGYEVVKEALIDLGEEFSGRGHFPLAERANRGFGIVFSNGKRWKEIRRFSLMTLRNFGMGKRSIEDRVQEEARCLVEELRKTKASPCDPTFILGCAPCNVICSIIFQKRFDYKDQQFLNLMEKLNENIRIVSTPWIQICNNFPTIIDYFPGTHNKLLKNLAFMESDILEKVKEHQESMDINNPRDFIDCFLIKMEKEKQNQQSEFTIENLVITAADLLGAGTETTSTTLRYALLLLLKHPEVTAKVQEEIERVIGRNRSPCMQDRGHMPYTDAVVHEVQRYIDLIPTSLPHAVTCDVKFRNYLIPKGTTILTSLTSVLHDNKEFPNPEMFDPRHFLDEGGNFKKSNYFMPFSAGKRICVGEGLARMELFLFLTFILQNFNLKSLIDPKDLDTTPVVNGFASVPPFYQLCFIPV
# Chain of Nonstructural protein 1 (Q194T2 whole entry, the tested form may be a part): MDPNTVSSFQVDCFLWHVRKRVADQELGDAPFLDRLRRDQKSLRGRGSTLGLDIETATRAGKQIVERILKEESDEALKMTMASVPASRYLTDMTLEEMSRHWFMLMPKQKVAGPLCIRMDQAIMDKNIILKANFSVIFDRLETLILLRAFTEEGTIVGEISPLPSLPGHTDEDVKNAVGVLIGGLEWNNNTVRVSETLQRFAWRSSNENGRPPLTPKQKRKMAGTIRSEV
structure (smiles),measurement,setting,value
CC(=O)NCCNc1nc2c(-c3ccccc3)nnn2c2ccccc12,IC50,[1],> 79 µM (inactive)
COc1cc(C)c(C(=O)CC(=O)c2c(C)cc(OC)cc2C)c(C)c1,AC50,[2],21.8 µM (active)
same,EC50,[3],10.7 µM (active)
same,EC50,[4],68.7 µM (active)
same,AC50,[5],8.81 µM (active)
same,EC50,[6],3.96 µM (active)
same,EC50,[7],> 120 µM (not active)
same,EC50,[8],2.67 µM (active)
same,EC50,[9],> 150 µM (not active)
same,AC50,[10],7.4 µM (active)
same,EC50,[11],73.2 µM (active)
same,AC50,[12],> 70 µM (inactive)
same,EC50,[13],6.5 µM (active)
CN(C)c1ccc(C(=O)NC2(N3CCC3=O)CCCC2)cc1,AC50,[14],2.55 µM (active)
same,IC50,[15],126 µM (active)
Cc1cc(C(=O)COc2ccccc2C(N)=O)c(C)n1C,IC50,[1],> 79 µM (inactive)
Cc1nn(Cc2ccc(F)cc2)c2sc(C(=O)Nc3ccc(N4CCOCC4)cc3N3CCOCC3)cc12,IC50,[16],2.73 µM (not active)
O=C(Nc1ccc(N2CCCCC2)cc1)c1cccnc1,AC50,[14],21.6 µM (active)
Cc1nnc2ccc(-c3cccc(NC(=O)c4ccc(Cl)nc4)c3)nn12,IC50,[1],> 79 µM (inactive)
CCN(CC)S(=O)(=O)c1ccc2c3c(cccc13)C(=O)S2,AC50,[17],17.8 µM (inconclusive)
same,AC50,[18],inconclusive
Brc1[nH]nc2ccccc12,AC50,[19],11.2 µM (inconclusive)
same,AC50,[18],inconclusive
CCN(c1ccc(NC(=O)COC(=O)c2cccs2)cc1)C(C)C,IC50,[16],1.4 µM (not active)
CCOc1ccc(C(=O)Nc2cccc(-c3nc4cccnc4o3)c2)cc1Cl,AC50,[17],6.31 µM (inconclusive)
same,AC50,[20],14.1 µM (inconclusive)
same,AC50,[19],14.1 µM (inconclusive)
same,AC50,[21],5.01 µM (inconclusive)
same,IC50,[1],> 79 µM (inactive)
Cc1ccc(N2CCN(C(=O)N3CCCC3)CC2)cc1Cl,AC50,[14],27.2 µM (active)
COc1cnn(-c2ccccc2)c(=O)c1SCc1ccc(Cl)cc1Cl,IC50,[16],1.26 µM (not active)
O=C(NCC(=O)N(Cc1cccs1)C(C(=O)NC1CCCCC1)c1ccco1)c1ccco1 (stereo not given),IC50,[1],7.48 µM (active)
O=S(=O)(Nc1ccc(N2CCCCC2)cc1)c1cccc2cccnc12,AC50,[14],0.723 µM (active)
Oc1cc(-c2cccnc2)cc2cccnc12,IC50,[22],15.6 µM (active)
same,AC50,[2],4.04 µM (active)
same,AC50,[10],9.27 µM (active)
same,AC50,[12],10.9 µM (active)
CC(=O)c1c(C)[nH]c(C(=O)OCC(=O)Nc2c(C)cccc2C)c1C,AC50,[23],0.745 µM (active)
same,AC50,[24],3.02 µM (active)
O=C1CSC(c2ccccn2)N1c1ccccc1 (stereo not given),AC50,[14],0.225 µM (active)

# Source: ChEMBL document CHEMBL1201862, “PubChem BioAssay data set” (2004)
